# Laboratory results taken from PMC4627230, “Identification of TAX2 peptide as a new unpredicted anti-cancer agent” (Oncotarget, 2015).
# Key:
# TSP-1 = assay: Microscale thermophoresis; format: binding; settings: data not shown
# [1] = test system: immobilized TSP-1 (thrombospondin from human platelets); assay: ELISA competition by unlabeled TAX2; format: binding; settings: biotinylated TAX2 10 μg/mL; unlabeled competitor 0.001 to 5 mg/mL
# Experimental: Microtiter plates (Nunc, ThermoFisher Scientific, Courtaboeuf, France) were coated overnight at 4°C with 0.5 μg TSP-1 in sodium carbonate-bicarbonate (BupH) buffer (Thermo Fisher Scientific). Plates were washed with PBS 0.1% BSA (Sigma-Aldrich) and non-specific sites were saturated during 30 min using 1% (w/v) BSA in BupH buffer. Biotin-labeled peptide (10 μg/mL, determined after dose-response assay from 0.01 to 100 μg/mL) was added in buffer containing 0.5% (w/v) BSA and incubated for 3 h at room temperature. Non-labeled peptide (0.001 to 5 mg/mL) was used as selective competitor. Plates were washed with PBS containing 0.1% (w/v) BSA and treated for 30 min with mouse anti-biotin antibody. Bound antibody was quantified using the mouse IgG Elite Vectastain ABC kit (Vector Laboratories) followed by incubation with 1-Step Turbo TMB substrate as a chromogen (ThermoFisher Scientific). The reaction was stopped with 0.5 M H2SO4 and absorbance was read at 450 nm.
# TSP-1 binding to CD36 = assay: Co-immunoprecipitation TSP-1:CD36 in HUVECs; format: cell-based, human; settings: 100 μM, 24 h
# Experimental: Figure 3 Anti-angiogenic properties of TAX2 are mediated by TSP-1 binding to CD36 A. Expression of CD36 in HUVECs was assessed by immunoblotting (left panel) and immunofluorescence staining (right panel, red). Nuclei were counterstained with DAPI (blue). B. HUVECs were incubated with 100 μM cyclic TAX2 or in control conditions for 24 h. Then, CD36-containing complexes were co-immunoprecipitated from whole cell extracts (non-specific IgGs were used as a negative control for immunoprecipitation). Immunocomplexes were submitted to SDS-PAGE and immunoblotted (IB) by using specific antibodies for TSP-1 and CD36. The presence of TSP-1 in immunocomplexes was quantified by densitometric analysis relative to immunoprecipitated CD36. C. VEGFR2 phosphorylation induced by VEGF in the presence of TAX2. After overnight serum starvation, HUVECs were pre-treated with 100 μM TAX2 or control for 12 h, then incubated with 30 ng/mL VEGF for 5 min. […] Data are expressed as the mean ± SE (n = 3; *p < 0.05, ANOVA). […] Quantification of total tube-like network length was realized using ImageJ software E. Branching points F. and nodal structures G. were numbered using the S.CORE web-based system. Data are expressed as the mean ± SE (n = 3; *p < 0.05, ANOVA). […]
# [2] = test system: MIA PaCa-2 xenograft in BALB/C nu/nu mice; assay: MIA PaCa-2 human pancreatic carcinoma xenograft growth; format: in vivo, human tumor xenograft in mouse
# Experimental: For the subcutaneous melanoma tumor model, suspensions of B16F1 cells (2.5 × 10^5 cells in 100 μL RPMI-1640 medium) were subcutaneously injected into the left flank of different randomized series of syngeneic C57BL/6 mice (n = 8–10 per group), as previously described. Intraperitoneal administrations of peptide (10 mg/kg mouse weight) or controls (physiological serum 0.9% (w/v) NaCl or a scrambled peptide) were performed at days 3, 5 and 7. In human pancreatic carcinoma xenograft experiments, 3 × 10^6 MIA PaCa-2 cells/mouse were implanted subcutaneously into the left flank of BALB/C athymic nude mice, then TAX2 intraperitoneal treatments (10 mg/kg mouse weight) were performed 3 times a week during 4 weeks starting at day 10 after tumor cells inoculation. Tumor volume was determined according to v = 0.5 A × B^2, where A denotes the largest dimension of the tumor and B represents the smallest dimension. At days indicated, mice were sacrificed and tumors were surgically extracted and fixed in 4% paraformaldehyde for further morphologic studies and for magnetic resonance imaging, or frozen for immunohistochemistry. Mice were also weighed every 2–3 days and daily checked for any modification in their behavior. Loss of 15% body weight was an indication for euthanasia as well as severe tumor necrosis, as it was sometimes associated with skin ulceration that would result in loss of body fluid and/or infection.
sequence,measurement,setting,value
"CEVSQLLKGDAC (disulfide) [TAX2, CD47-derived cyclic disulfide dodecapeptide …]",binding to TSP-1 by microscale thermophoresis,TSP-1,confirmed
same,competition with biotinylated TAX2 for TSP-1 binding,[1],Competitive binding occurred in a dose-dependent fashion
same,increase of TSP-1 co-immunoprecipitated with CD36,TSP-1 binding to CD36,3 fold
same,xenograft growth delay,[2]; 10 mg/kg i.p. 3 times a week for 4 weeks from day 10,strong delay
same,decrease of tumor volume at day 38,"[2]; 10 mg/kg i.p. 3 times a week for 4 weeks from day 10, n = 9, p < 0.05",2 fold
same,"tumor volume at day 24, xenograft","[2]; 10 mg/kg i.p. 3 times a week from day 10, n = 15",no differences in measured tumor volume were observed
same,inhibition rate compared to 5 mg/kg bevacizumab twice weekly i.p.,"[2]; MIA PaCa-2 xenograft, bevacizumab data from ref [56]",higher inhibition rates
